Measured values: patent US5981489A, “Non-aqueous protic peptide formulations” (Alza Corporation, priority 1997, dated 1999)

Assays:
Type in all cases: physicochemical
[1] = Stability of nafarelin formulations, one month at 37° C., RP-HPLC
Description: (§1) Stability samples were analyzed using RP-HPLC. The area under the curve for the leuprolide peak divided by the sum of the areas under the curve of all peaks gave % purity. [It should be noted that the data for % concentration presented with the % purity data (Examples 6, 8, 9 and 10) are inconclusive. The analysis methods used to determine % concentration in these experiments were unreliable.]
Formulations of 15% (w/w) nafarelin in either PEG 600 or propylene glycol were prepared as described above for leuprolide and placed in polymeric containers.
The containers were stored at 37° C. for one month in an incubator.
The samples were analyzed using RP-HPLC to determine the chemical stability of the aged formulations.

[2] = Stability of goserelin formulations, one month at 37° C., RP-HPLC; conditions: for % CONCENTRATION: method called unreliable
Description: as §1
Formulations of 40-45% (w/w) goserelin in either PEG 600 or PG/acetate buffer (30:70) were prepared as described above and placed in polymeric containers. The containers were stored at 37° C. for one month in an incubator. The samples were analyzed using RP-HPLC to determine the chemical stability of the aged formulations.

[3] = Gelation of non-aqueous protic solvent formulations on adding polar aprotic solvent
Description: Thus, these solvents have an anti-gellant effect.

[4] = 15% (w/w) in vehicle PEG 600, one month at 37° C.
[5] = 15% (w/w) in vehicle PG, one month at 37° C.
[6] = 40-45% (w/w) in vehicle PEG 600, one month at 37° C.
[7] = 40-45% (w/w) in vehicle PG/Acetate Buffer(30:70), one month at 37° C.

CC(C)C[C@H](NC(=O)[C@@H](Cc1ccc2ccccc2c1)NC(=O)[C@H](Cc1ccc(O)cc1)NC(=O)[C@H](CO)NC(=O)[C@H](Cc1c[nH]c2ccccc12)NC(=O)[C@H](Cc1c[nH]cn1)NC(=O)[C@@H]1CCC(=O)N1)C(=O)N[C@@H](CCCNC(=N)N)C(=O)N1CCC[C@H]1C(=O)NCC(N)=O [nafarelin]
% CONCENTRATION [1, 4]: 15.8%
% PURITY [1, 4]: 99.4%
% CONCENTRATION [1, 5]: 12.9%
% PURITY [1, 5]: 99.4%

CC(C)C[C@H](NC(=O)[C@@H](COC(C)(C)C)NC(=O)[C@H](Cc1ccc(O)cc1)NC(=O)[C@H](CO)NC(=O)[C@H](Cc1c[nH]c2ccccc12)NC(=O)[C@H](Cc1cnc[nH]1)NC(=O)[C@@H]1CCC(=O)N1)C(=O)N[C@@H](CCCNC(=N)N)C(=O)N1CCC[C@H]1C(=O)NNC(N)=O [goserelin]
% PURITY [2, 6]: 99.3%
% CONCENTRATION [2, 6]: 23.6%
% PURITY [2, 7]: 98.2%
% CONCENTRATION [2, 7]: 49.7%
effect of adding polar aprotic solvents such as DMSO on gelation of the formulation [3]: prevents gelation

CCNC(=O)[C@@H]1CCCN1C(=O)[C@H](CCCNC(=N)N)NC(=O)[C@H](CC(C)C)NC(=O)[C@@H](CC(C)C)NC(=O)[C@H](Cc1ccc(O)cc1)NC(=O)[C@H](CO)NC(=O)[C@H](Cc1c[nH]c2ccccc12)NC(=O)[C@H](Cc1c[nH]cn1)NC(=O)[C@@H]1CCC(=O)N1 [leuprolide]
effect of adding polar aprotic solvents such as DMSO on gelation of the formulation [3]: prevents gelation

calcitonin
effect of adding polar aprotic solvents such as DMSO on gelation of the formulation [3]: prevents gelation
